# Read-outs that look alike come from different tables or passages of the source.
# Tests used:
# [1] = system: Salmonella typhimurium TA100
# S. aureus USA300 = test: Induced tolerance assay (23 days); conditions: for MIC: Staphylococcus aureus
# Proteus vulgaris JEO1 = test: Broth microdilution (MIC/MBC); assay type: cell-based; conditions: JEO1, veterinary clinical isolate
# [2] = system: Salmonella typhimurium TA1537; test: Ames test; conditions: for Mutagenicity ratio (MR): TA1537, 4 μg/well
# [3] = system: Staphylococcus aureus USA300 JE2; test: Broth microdilution (MIC/MBC); assay type: cell-based; conditions: USA300 JE2, human clinical isolate
# MRSA strain 43484 = test: Mouse skin (wound) infection model, topical treatment; assay type: in vivo, Staphylococcus aureus; conditions: 50 μl topical twice daily for 3 days, female mice, skin biopsies day 4
# Protocol: To study the effect of topical treatment with JBC 1847 against MRSA strain 43484, a mouse skin infection model was established. Initially, female mice (18–22 g) were orally treated with 45 μl nurofen (20 mg ibuprofen/ml) and anaesthetized with 0.15 ml s.c. of Zoletil mix. The fur was removed from an area of 6 cm^2 and a part of epidermis was subsequently scraped off to obtain a 1 cm^2 superficial skin lesion. The mice were inoculated with 10 μl of a saline solution containing approximately 10^7 CFU. The day after inoculation, topical treatment with 50 μl test compound was initiated and performed twice daily for a 3-day period. Fucidic acid was included as a positive control, and vehicle treatment was included as a negative control. Through the entire study, the behavior and clinical signs of the mice were carefully observed. Mice were killed the day after last treatment, and skin biopsies from the wounded area were collected. The skin samples were homogenized using a Dispomixer and serially diluted in saline/Triton X. To determine the bacterial concentration, 20 μl spots were transferred to MRSA Brilliance agar plates (Oxoid, Thermo Scientific, Roskilde, Denmark) and incubated 20–48 h at 35°C.
# Data were statically analyzed and visualized using RStudio v3.6.3 ([R Core Team, 2020]) and Microsoft excel. In general, the values reflecting the bacterial concentration (CFU/ml) were transformed into a logarithmic scale. In the growth and viability assay, the mean numbers of the bacterial concentrations from the triplicates were plotted against time and standard deviations shown as error bars. To investigate differences in bacterial concentration between treatment groups in the in vivo assay, multiple group comparisons were performed using ANOVA and P < 0.05 considered significant. The data was visualized in a standard box plot.
# [4] = system: E. coli APEC O2 (in house strain); test: Broth microdilution (MIC/MBC); assay type: cell-based; conditions: Escherichia coli; APEC O2, veterinary clinical isolate
# S. aureus USA300 JE2 = test: Agar dilution MIC; assay type: cell-based; conditions: Staphylococcus aureus, MHA plates
# Protocol: (§1) Initially, MHA plates with JBC 1847 concentrations ranging from 0.5 to 8 mg/L were made and bacterial inoculum was prepared as previously described, was added to each plate. […] The MIC values for the two S. aureus strains were both determined to 4 mg/L and therefore, TSA plates with a JBC 1847 concentration of 2 mg/L were prepared to ensure the strains were able to grow. One dish of each type of antibiotic was added to a single TSA plate with JBC 1847 and a control plate containing only TSA and inoculated as previously described. Two plates containing only 2 mg/L JBC 1847 and bacterial inoculum for each strain served as a positive control. After incubation, clearing zones were measured and compared between control and JBC 1847 plates.
# S. aureus ATCC-BAA = test: Agar dilution MIC; assay type: cell-based; conditions: Staphylococcus aureus, MHA plates
# Protocol: as §1
# [5] = system: Salmonella typhimurium TA98
# [6] = system: Enterococcus faecium ATCC 700221; test: Broth microdilution (MIC/MBC); assay type: cell-based; conditions: ATCC700221, ATCC 700221, human clinical isolate
compound,measurement,setting,value
CC(C)=CCCC(C)CC[N+](C)(C)CCCN1c2ccccc2Sc2ccccc21 (stereo not drawn) [JBC 1847],Mean number of reverse mutated colonies,"[1]; TA100, + S9, 1.5 μg/well",21.33 ± 2.08
same,Mean number of reverse mutated colonies,"[1]; TA100, + S9, 4 μg/well",19.00 ± 5.29
same,Mean number of reverse mutated colonies,"[1]; TA100, + S9, 10 μg/well",13.67 ± 1.53
same,Mean number of reverse mutated colonies,"[1]; TA100, + S9, 64 μg/well",0.0
same,Mean number of reverse mutated colonies,"[1]; TA100, −S9, 1.5 μg/well",24.33 ± 3.21
same,Mean number of reverse mutated colonies,"[1]; TA100, −S9, 4 μg/well",26.67 ± 2.08
same,Mean number of reverse mutated colonies,"[1]; TA100, −S9, 10 μg/well",18.00 ± 5.57
same,Mean number of reverse mutated colonies,"[1]; TA100, −S9, 25 μg/well",0.0
same,Mean number of reverse mutated colonies,"[1]; TA100, −S9, 64 μg/well",0.0
same,MIC,"S. aureus USA300; USA300, 24 h, read-out: MIC Day 1",0.5 µg/mL
same,MIC,"S. aureus USA300; USA300, 96 h, read-out: Highest MIC",3.5 µg/mL
same,MIC,"S. aureus USA300; USA300, 96 h, read-out: MIC values after day 4",1 to 2.5 µg/mL
same,MIC,"S. aureus USA300; USA300, 552 h, read-out: MIC Day 23",3.5 µg/mL
same,Increase in MIC,"S. aureus USA300; tolerance assay, during the 23 days",7 fold
same,MBC,Proteus vulgaris JEO1,32 µg/mL
same,MIC,Proteus vulgaris JEO1,32 µg/mL
same,Mutagenicity ratio (MR),[2]; absence of S9,above 2
same,Mutagenicity ratio (MR),[2]; presence of S9,above 2
same,Mean number of reverse mutated colonies,"[2]; TA1537, + S9, 1.5 μg/well",2.00 ± 2.65
same,Mean number of reverse mutated colonies,"[2]; TA1537, + S9, 10 μg/well",0.33 ± 0.58
same,Mean number of reverse mutated colonies,"[2]; TA1537, + S9, 64 μg/well",0.0
same,Mean number of reverse mutated colonies,"[2]; TA1537, −S9, 1.5 μg/well",5.00 ± 1.00
same,Mean number of reverse mutated colonies,"[2]; TA1537, −S9, 64 μg/well",0.0
same,MBC,[3],0.5 µg/mL
same,MIC,[3]; read-out: MIC,0.5 µg/mL
same,Reduction of bacterial counts compared with the vehicle,MRSA strain 43484; 1% solution,3.0 log10 CFU
same,Reduction of bacterial counts compared with the vehicle,MRSA strain 43484; 2%,3.7 log10 CFU
same,MBC,[4],16 µg/mL
same,MIC,[4],16 µg/mL
same,MIC,S. aureus USA300 JE2,4 µg/mL
same,MIC,S. aureus ATCC-BAA,4 µg/mL
same,Mean number of reverse mutated colonies,"[5]; TA98, + S9, 1.5 μg/well",11.00 ± 2.65
same,Mean number of reverse mutated colonies,"[5]; TA98, + S9, 4 μg/well",11.33 ± 3.79
same,Mean number of reverse mutated colonies,"[5]; TA98, + S9, 10 μg/well",13.67 ± 4.04
same,Mean number of reverse mutated colonies,"[5]; TA98, + S9, 64 μg/well",0.0
same,Mean number of reverse mutated colonies,"[5]; TA98, −S9, 1.5 μg/well",13.00 ± 2.00
same,Mean number of reverse mutated colonies,"[5]; TA98, −S9, 4 μg/well",9.00 ± 2.00
same,Mean number of reverse mutated colonies,"[5]; TA98, −S9, 10 μg/well",9.67 ± 3.51
same,Mean number of reverse mutated colonies,"[5]; TA98, −S9, 25 μg/well",0.0
same,Mean number of reverse mutated colonies,"[5]; TA98, −S9, 64 μg/well",0.0
same,MBC,[6],2 to 4 µg/mL
same,MIC,[6],2 µg/mL

# From publication PMC7555839 (Frontiers in Microbiology, 2020)
